Assay results as given in publication PMC5584945, “Evaluation of robenidine analog NCL195 as a novel broad-spectrum antibacterial agent” (PLoS ONE, 2017).
Where two headings read alike, the source gives them in different places.

What was measured:
A. baumannii = test: MIC alone and checkerboard with EDTA or polymyxin B; format: cell-based; details: for MIC: Acinetobacter baumannii
Protocol: MICs for NCL812 and its analogs (serial two-fold dilutions commencing at 128 μg/ml) were determined (in duplicate) in round bottom 96-well microtitre trays (Sarstedt 82.1582.001), using the broth micro-dilution method recommended by the Clinical and Laboratory Standards Institute (CLSI). […] MIC50, MIC90 and MIC range for NCL812, NCL195 and NCL219 were calculated against each S. pneumoniae, S. aureus or VRE isolate. To assess the potential activity of NCL195 against Gram-negative bacteria, MICs against Acinetobacter spp, E. coli, K. pneumoniae, P. aeruginosa, Proteus spp and Neisseria meningitidis were performed in the presence or absence of 0.08 mM-20 mM EDTA in a standard checkerboard assay.

S. pneumoniae D39 = test: TEM morphometric analysis of cell membrane; format: cell-based, Streptococcus pneumoniae; details: 16 μg/ml, 6 h exposure
Protocol: (§1) Morphological appearance and morphometric analysis of the cell membrane of S. pneumoniae D39 after exposure to either 1 μg/ml, 4 μg/ml or 16 μg/ml of NCL812 was determined using TEM, as described in S1 File (Supplementary Methods). For S. aureus ATCC 29213, macromolecular (DNA, RNA, protein, cell wall, and lipid) synthesis inhibition studies were performed using concentrations of NCL812 that were equivalent to 0, 0.25, 0.5, 1, 2, 4 or 8-fold the MIC value (4 μg/ml), as detailed in S1 File (Supplementary Methods).
Effect of NCL812 on S. pneumoniae D39 cell membrane ultra-structure. Morphological appearance and morphometric analysis of the cell membrane of S. pneumoniae D39 after exposure to either 1 µg/ml, 4 µg/ml or 16 µg/ml of NCL812 was determined using TEM. […] Cultures were then exposed to either 1 µg/ml, 4 µg/ml or 16 µg/ml of NCL812 and harvested at 6 or 12 h by centrifugation at […] for 20 min and washed twice in 50 ml PBS. Critical time points for TEM work were determined by analyzing trends in the growth curves produced from the kill kinetics studies. Samples were resuspended in PBS containing 20% glycerol and stored at -80°C until required. […]
Samples were fixed using modified protocols defined by a previous study examining cell wall ultrastructure of S. pneumoniae. […] Images were obtained at 130000× magnification and analyzed using analySIS (Olympus Soft Imaging Systems).

mice = details: cited from earlier work
S. aureus ATCC 29213 = test: Macromolecular synthesis inhibition; format: cell-based, Staphylococcus aureus; details: 0.25 to 8-fold MIC; exponentially growing culture
Protocol: as §1
Effect of NCL812 on S. aureus ATCC29213 macromolecular synthesis. […]
A 5% DMSO treated culture served as the “no drug” control for all experiments. […] After washing three times with 5 ml of cold 5% TCA, the filters were rinsed two times with 5 ml 100% ethanol, allowed to dry, and then counted using a Beckman LS3801 liquid scintillation counter.
To test the effect of NCL812 on cell wall synthesis, bacteria were transferred to M9 minimal medium and added to 1.5 ml eppendorf tubes (100 μl/tube) containing various concentrations of test compound or control antibiotics (5 μl) at 20X the final concentration in 100% DMSO as described above. […] After washing three times with 5 ml of 0.1% SDS, the filters were rinsed two times with 5 ml of deionized water, allowed to dry, and then counted using a Beckman LS3801 liquid scintillation counter. […]

SMILES	MIC of NCL195 in combination with EDTA (A. baumannii; A. baumannii ATCC 12457, with EDTA 0.25 mM)	MIC of NCL195 in combination with polymyxin B (A. baumannii; A. baumannii ATCC 12457)	MIC of NCL195 in combination with EDTA (A. baumannii; A. baumannii ATCC 19606, with EDTA 0.5 mM)	MIC of NCL195 in combination with polymyxin B (A. baumannii; A. baumannii ATCC 19606)	MIC (A. baumannii; ATCC12457, A. baumannii ATCC 12457, read-out: MIC, agent alone)	MIC (A. baumannii; ATCC19606, A. baumannii ATCC 19606, read-out: MIC, agent alone)	MIC (A. baumannii; A. baumannii isolates without strain name (one table line per isolate), read-out: MIC)	Periplasmic space width (S. pneumoniae D39; untreated 3.91 ± 0.14 nm)	Cell membrane thickness (S. pneumoniae D39; untreated 4.35 ± 0.24 nm)	oral LD50 (mice)	Effect on macromolecular synthesis pathways (S. aureus ATCC 29213)
Cc1ccc(/C=N/Nc2cc(N/N=C/c3ccc(C)cc3)nc(N)n2)cc1 [NCL195, 4,6-bis(2-((E)-4-methylbenzylidene)hydrazinyl)pyrimidin-2-amine]	4 µg/mL	0.5 µg/mL	2 µg/mL	0.5 µg/mL	> 128 µg/mL	> 128 µg/mL	> 128 µg/mL	–	–	–	–
Cl.N=C(NN=Cc1ccc(Cl)cc1)NN=Cc1ccc(Cl)cc1 [NCL812, 2,2'-bis[(4-chlorophenyl)methylene] carbonimidic dihydrazide hydrochloride]	–	–	–	–	–	–	–	4.54 ±0.096 nm	6.43 ± 0.29 nm	150 mg/kg	inhibited DNA (A), RNA (B), protein (C), cell wall (D), and lipid (E) pathways
